{"source": "patent US20100310544A1", "about": "“COMPOSITION COMPRISING CALCIUM IONS AND AT LEAST ONE PROTEOLYTIC ENZYME FOR USE IN THE IN VITRO AND IN VIVO REGENERATION OF CUTANEOUS AND CONNECTIVE TISSUES” (MEDEVICE S.P.A., priority 2007, published 2010)", "test_system": "cutis and subcutis", "test": "In vivo clinical studies II, Q-BASE-CREAM, regeneration and repairing of cutis and subcutis", "parameters": "species or system human", "details": "Case 2, surgical suture dehiscence; before Q-BASE-CREAM", "protocol": "A clinical study was performed, which was designed to assess the therapeutic effectiveness of the product designated as Q-BASE-CREAM in the regeneration and repairing of cutis and subcutis.\nDuring the period comprised from March to May 2007, a mixed group of volunteers consisting of human (two women and one person) and veterinary (two dogs) patients were included in the clinical study.", "data": [{"substance": "povidone-iodine", "values": [{"measurement": "change of the lesion after 7 days of previous local therapy", "value": "no changes in the lesion occurred"}]}]}
